The text below walks through data of US5217975A (priority 1989, dated 1993).

Each structure is given as a SMILES string. Where two headings read alike, the source gives them in different places.

In assay [1] the target is muscarinic receptors. The assay is described as follows: Radioligand binding: displacement of muscarinic agonist 3H-Oxotremorine-M (3H-OXO-M), rat cerebral cortex. The conditions noted are these: displacement of 2 nM 3H-OXO-M, 2 mM magnesium chloride, 37° C., 30 min. More on the design: species or system Hooded Lister rats.
The target of assay [2] is muscarinic receptors. In kind it is binding, Hooded Lister rats. The conditions noted are these: displacement of 0.27 nM 3H-QNB, rat cerebral cortex, 37° C., 30 min.

The IC50 is the concentration that inhibits the measured activity by half. `Cn1ncc(C23CCCN(CC2)C3)n1` (racemic) [Example E1, (±) 5-(2-Methyl-1,2,3-triazol-4-yl)-1-azabicyclo-[3.2.1]octane]: the IC50 came to 14.2 nM in assay [1] and 3000 nM in assay [2].

`Cn1nnc(C2CN3CCC2CC3)n1` (racemic) [Example E2, (±) 3-(2-Methyltetrazol-5-yl)-1-azabicyclo[2.2.2]octane]: the IC50 in assay [1] turned out to be 230 nM; in assay [2], 5700 nM.

In the case of `Cn1nnc(C23CCCN(CC2)C3)n1` (racemic) [Example E3, (±) 5-(2-Methyltetrazol-5-yl)-1-azabicyclo[3.2.1]octane], the values for the concentration for half-maximal inhibition (IC50) in assay [1] and in assay [2] were 100 nM and 8200 nM, respectively.

On to `CCn1nnc(C2CN3CCC2CC3)n1` (racemic) [Example E9, (±) 3-(2-Ethyltetrazol-5-yl)-1-azabicyclo[2.2.2]octane], for which the IC50 in assay [1] came to 1000 nM; in assay [2], 8300 nM.

Turning to `Cn1ncc(C2CN3CCC2CC3)n1` (racemic) [Example E11], the IC50 was found to be 56 nM in assay [1] and 6550 nM in assay [2].

Turning to `Cn1nncc1C1CN2CCC1CC2` (racemic) [Example E13], the IC50 stood at 750 nM in assay [1] and 38000 nM in assay [2].

Consider `Cn1nnc([C@@H]2CN3CC[C@@H]2C3)n1` (relative stereo) [Example E4, (±) exo-3-(2-Methyltetrazol-5-yl)-1-azabicyclo-[2.2.1]heptane], for which the results for the IC50 in assay [1] and in assay [2] were 11.5 nM and 3700 nM, respectively.

On to `Cn1nnnc1[C@@H]1CN2CC[C@@H]1C2` (relative stereo) [Example E5, (±) exo-3-(1-Methyltetrazol-5-yl)-1-azabicyclo-[2.2.1]heptane], for which the IC50 in assay [1] is 349 nM; in assay [2], 95000 nM.

Regarding `Cn1nnc([C@H]2CN3CC[C@@H]2C3)n1` (relative stereo) [Example E6, (±) endo-3-(2-Methyltetrazol-5-yl)-1-azabicyclo-[2.2.1]heptane], the concentration for half-maximal inhibition (IC50) in assay [1] was 324 nM; in assay [2], 40000 nM.

For the compound `Cn1ncc([C@@H]2CN3CC[C@@H]2C3)n1` (relative stereo) [Example E14, (±) exo-3-(2-Methyl-1,2,3-triazol-4-y1)-1-azabicyclo 2.2.1]heptane], the IC50 in assay [1] stood at 5.6 nM; in assay [2], 5700 nM.

For the compound `Cn1ncc([C@H]2CN3CC[C@@H]2C3)n1` (relative stereo) [Example E15, (±) endo-3-(2-Methyl-1,2,3-triazol-4-yl)-1-azabicyclo [2.2.1]heptane], the values for the IC50 in assay [1] and in assay [2] were 10.5 nM and 18500 nM, respectively.

For the compound `CCn1nnc([C@@H]2CN3CC[C@@H]2C3)n1` (relative stereo) [Example E18, (±) exo-3-(2-Ethyltetrazol-5-yl)-1-azabicyclo[2.2.1]heptane], the half-inhibitory concentration (IC50) in assay [1] stood at 400 nM; in assay [2], 5500 nM.

Regarding `CCn1ncc([C@@H]2CN3CC[C@@H]2C3)n1` (relative stereo) [Example E19, (±) exo-3-(2-Ethyl-1.2.3-triazol-4-yl)-1-azabicyclo [2.2.1]heptane], the IC50 in assay [1] was found to be 540 nM; in assay [2], 2200 nM.

Regarding `Cn1nnc(C23CCN(CC2)C3)n1` [Example E8, 4-(2-Methyltetrazol-5-yl)-1-azabicyclo2.2.11 heptane], the results for the concentration for half-maximal inhibition (IC50) in assay [1] and in assay [2] were 250 nM and 56000 nM, respectively.

Turning to `Cn1ncc(C23CCN(CC2)C3)n1` [Example E10, 4-(2-Methyl-1,2,3-triazol-4-yl)-1-azabicyclo[2.2.1]-heptane], the half-inhibitory concentration (IC50) amounted to 32 nM in assay [1] and 20000 nM in assay [2].

On to `CCn1ncc(C23CCN(CC2)C3)n1` [Example E16], for which the IC50 in assay [1] was found to be 440 nM; in assay [2], 15800 nM.
